Assays:
[1] = system: large (Lg) crabgrass; test: Test A postemergence; format: in vivo, Digitaria sanguinalis
Summary of the method: (§1)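 Pre- and postemergence greenhouse screen. Soil: loam + sand. Spray carrier: solvent mixture, non-phytotoxic, with surfactant. Post timing at 1–2 leaves, height 2–10 cm. Readout: visual injury on a 0–100 scale roughly 10 days after application, untreated plants as reference.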

[2] = system: pigweed; test: Test A postemergence; format: in vivo, Amaranthus retroflexus
Summary of the method: as §1

[3] = system: pigweed; test: Test A preemergence; format: in vivo, Amaranthus retroflexus; details: for Pigweed plant response rating: 0 to 100 scale, 0 no effect, 100 complete control, approx. 10 days
Summary of the method: as §1

[4] = system: large (Lg) crabgrass; test: Test A preemergence; format: in vivo, Digitaria sanguinalis
Summary of the method: as §1

[5] = system: morningglory; test: Test A postemergence; format: in vivo, Ipomoea spp.
Summary of the method: as §1

[6] = system: wheat; test: Test A postemergence; format: in vivo, Triticum aestivum
Summary of the method: as §1

[7] = system: sedge, umbrella; test: Test B flooded paddy test; format: in vivo, Cyperus difformis; details: Flood, 250 g ai/ha; 0 to 100 scale where 0 is no effect and 100 is complete control
Summary of the method: (§2)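 Plants at 2-leaf stage; pots flooded to 3 cm above soil and compound applied directly into paddy water, depth held throughout. After 13 to 15 days in greenhouse, visual rating versus controls on 0 (no effect) to 100 (complete control) scale.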

[8] = system: velvetleaf; test: Test A postemergence; format: in vivo, Abutilon theophrasti
Summary of the method: as §1

[9] = system: barnyardgrass; test: Test B flooded paddy test; format: in vivo, Echinochloa crus-galli; details: Flood, 250 g ai/ha; 0 to 100 scale where 0 is no effect and 100 is complete control
Summary of the method: as §2

[10] = system: barnyardgrass; test: Test A postemergence; format: in vivo, Echinochloa crus-galli
Summary of the method: as §1

[11] = system: rice; test: Test B flooded paddy test; format: in vivo, Oryza sativa; details: Flood, 250 g ai/ha; 0 to 100 scale where 0 is no effect and 100 is complete control
Summary of the method: as §2

[12] = system: morningglory; test: Test A preemergence; format: in vivo, Ipomoea spp.; details: for Morningglory plant response rating: 0 to 100 scale, 0 no effect, 100 complete control, approx. 10 days
Summary of the method: as §1

[13] = system: velvetleaf; test: Test A preemergence; format: in vivo, Abutilon theophrasti; details: for Velvetleaf plant response rating: 0 to 100 scale, 0 no effect, 100 complete control, approx. 10 days
Summary of the method: as §1

[14] = system: corn; test: Test A preemergence; format: in vivo, Zea mays
Summary of the method: as §1

[15] = system: Heteranthera limosa; test: Test B flooded paddy test; format: in vivo; details: Flood, 250 g ai/ha; 0 to 100 scale where 0 is no effect and 100 is complete control
Summary of the method: as §2

[16] = system: barnyardgrass; test: Test A preemergence; format: in vivo, Echinochloa crus-galli
Summary of the method: as §1

[17] = system: giant foxtail; test: Test A postemergence; format: in vivo, Setaria faberii
Summary of the method: as §1

[18] = system: corn; test: Test A postemergence; format: in vivo, Zea mays
Summary of the method: as §1

[19] = system: wheat; test: Test A preemergence; format: in vivo, Triticum aestivum; details: for Wheat plant response rating: 0 to 100 scale, 0 no effect, 100 complete control, approx. 10 days
Summary of the method: as §1

[20] = system: giant foxtail; test: Test A preemergence; format: in vivo, Setaria faberii; details: for Foxtail, Giant plant response rating: 0 to 100 scale, 0 no effect, 100 complete control, approx. 10 days
Summary of the method: as §1

[21] = 125 g ai/ha, 0 to 100 scale where 0 is no effect and 100 is complete control
[22] = 500 g ai/ha, 0 to 100 scale, 0 no effect, 100 complete control
[23] = 500 g ai/ha, 0 to 100 scale, 0 no effect, 100 complete control, approx. 10 days
[24] = 1000 g ai/ha, 0 to 100 scale, 0 no effect, 100 complete control

Structure (SMILES): O=[N+]([O-])c1cccc(Oc2ncc(Cl)cn2)c1-n1cc(Br)cn1 [Compound 63]
- Plant response rating, Crabgrass, Large [1, 21]: 30
- Plant response rating, Crabgrass, Large [1, 22]: 90
- Plant response rating, Pigweed [2, 21]: 70
- Plant response rating, Pigweed [2, 22]: 100
- Plant response rating, Pigweed [3, 21]: 90
- Pigweed plant response rating ([3]; 500 g ai/ha): 100
- Plant response rating, Crabgrass, Large [4, 21]: 80
- Crabgrass, Large plant response rating [4, 23]: 100
- Plant response rating, Morningglory [5, 21]: 30
- Plant response rating, Morningglory [5, 22]: 80
- Plant response rating, Wheat [6, 21]: 0
- Plant response rating, Wheat [6, 22]: 10
- Plant response rating, Sedge, Umbrella [7]: 0
- Plant response rating, Velvetleaf [8, 21]: 60
- Plant response rating, Velvetleaf [8, 22]: 100
- Plant response rating, Barnyardgrass [9]: 0
- Plant response rating, Barnyardgrass [10, 21]: 30
- Plant response rating, Barnyardgrass [10, 22]: 70
- Plant response rating, Rice [11]: 0
- Plant response rating, Morningglory [12, 21]: 0
- Morningglory plant response rating ([12]; 500 g ai/ha): 0
- Plant response rating, Velvetleaf [13, 21]: 0
- Velvetleaf plant response rating ([13]; 500 g ai/ha): 20
- Plant response rating, Corn [14, 21]: 0
- Corn plant response rating [14, 23]: 0
- Plant response rating, Ducksalad [15]: 0
- Plant response rating, Barnyardgrass [16, 21]: 0
- Barnyardgrass plant response rating [16, 23]: 70
- Plant response rating, Foxtail, Giant [17, 21]: 20
- Plant response rating, Foxtail, Giant [17, 22]: 80
- Plant response rating, Corn [18, 21]: 0
- Plant response rating, Corn [18, 22]: 30
- Plant response rating, Wheat [19, 21]: 0
- Wheat plant response rating ([19]; 500 g ai/ha): 0
- Plant response rating, Foxtail, Giant [20, 21]: 20
- Foxtail, Giant plant response rating ([20]; 500 g ai/ha): 100

Structure (SMILES): Clc1cnc(Oc2cccc(I)c2-n2cc(Br)cn2)nc1 [Compound 66]
- Plant response rating, Crabgrass, Large [1, 24]: 100
- Plant response rating, Pigweed [2, 24]: 100
- Pigweed plant response rating ([3]; 1000 g ai/ha): 100
- Plant response rating, Crabgrass, Large [4, 24]: 100
- Plant response rating, Morningglory [5, 24]: 100
- Plant response rating, Wheat [6, 24]: 20
- Plant response rating, Sedge, Umbrella [7]: 0
- Plant response rating, Velvetleaf [8, 24]: 100
- Plant response rating, Barnyardgrass [9]: 0
- Plant response rating, Barnyardgrass [10, 24]: 80
- Plant response rating, Rice [11]: 0
- Morningglory plant response rating ([12]; 1000 g ai/ha): 40
- Velvetleaf plant response rating ([13]; 1000 g ai/ha): 90
- Plant response rating, Corn [14, 24]: 30
- Plant response rating, Ducksalad [15]: 30
- Plant response rating, Barnyardgrass [16, 24]: 90
- Plant response rating, Foxtail, Giant [17, 24]: 100
- Plant response rating, Corn [18, 24]: 40
- Wheat plant response rating ([19]; 1000 g ai/ha): 10
- Foxtail, Giant plant response rating ([20]; 1000 g ai/ha): 100

Reference: US9695155B2, “Herbicidal substituted pyrimidinyloxy benzene compounds” (E. I. DU PONT DE NEMOURS AND COMPANY, priority 2013, dated 2017)
